Data taken from PubChem BioAssay AID212 (DTP/NCI, 2004).
“And” between values parts separate entries of the source, which are not always exact repeats. Identical values can stand only once. Results filed as inconclusive are left out.

System: BDF1 mice, colon carcinoma 38 sc, T/C %
Assay: NCI In Vivo Anticancer Drug Screen. Data for tumor model Colon Carcinoma 38 (subcutaneous) in B6D2F1 (BDF1) mice
Details: endpoint: median tumor weight (est.), higher = larger tumour
In short: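 Ratio of survival or tumor size, compound-treated animals relative to vehicle controls, in tumor-bearing mice.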

[1] = dose: 12.5 mg/kg/injection, schedule: Q07DX002 (ip), vehicle: saline with Tween-80
[2] = dose: 25.0 mg/kg/injection, schedule: Q07DX002 (ip), vehicle: saline with Tween-80
[3] = dose: 50.0 mg/kg/injection, schedule: Q07DX002 (ip), vehicle: saline with Tween-80

Structure (SMILES): C1CC[N-]CC1.[Cl][Pt+2][Cl].[NH-]C1CC1
- T/C (dose: 6.25 mg/kg/injection, schedule: Q07DX002 (ip), vehicle: water): 75 % of control
- T/C (dose: 25.0 mg/kg/injection, schedule: Q07DX002 (ip), vehicle: water): 86 % of control
- T/C (dose: 100.0 mg/kg/injection, schedule: Q07DX002 (ip), vehicle: water): 163 % of control

Structure (SMILES): C=CS(=O)(=O)c1ccccc1
- T/C (dose: 6.25 mg/kg/injection, schedule: Q07DX002 (ip), vehicle: saline with Tween-80): 91 % of control
- T/C [1]: 66 % of control
- T/C (dose: 12.5 mg/kg/injection, schedule: Q07DX002 (ip), vehicle: saline): 97 % of control
- T/C [2]: 174 % of control
- T/C [3]: 150 % of control
- T/C (dose: 50.0 mg/kg/injection, schedule: Q07DX002 (ip), vehicle: saline): 100 % of control
- T/C (dose: 100.0 mg/kg/injection, schedule: Q07DX002 (ip), vehicle: saline with Tween-80): 109 % of control

Structure (SMILES): Clc1ccc(C2SC=Cc3ccccc32)cc1 (centres undefined)
- T/C (dose: 50.0 mg/kg/injection, schedule: Q07DX002 (ip), vehicle: Klucel (hydroxypropylcellulose) (HPC)): 56 % of control
- T/C (dose: 100.0 mg/kg/injection, schedule: Q07DX002 (ip), vehicle: Klucel (hydroxypropylcellulose) (HPC)): 47 % of control
- T/C (dose: 200.0 mg/kg/injection, schedule: Q07DX002 (ip), vehicle: Klucel (hydroxypropylcellulose) (HPC)): 57 % of control
- T/C (dose: 400.0 mg/kg/injection, schedule: Q07DX002 (ip), vehicle: Klucel (hydroxypropylcellulose) (HPC)): 93 % of control

Structure (SMILES): ClC1=C(Cl)C2(Cl)C3C(Cl)C(Cl)CC3C1(Cl)C2(Cl)Cl (centres undefined)
- T/C (dose: 9.5 mg/kg/injection, schedule: Q07DX002 (ip), vehicle: saline with Tween-80): 103 % of control
- T/C (dose: 19.0 mg/kg/injection, schedule: Q07DX002 (ip), vehicle: saline with Tween-80): 114 % of control
- T/C (dose: 28.0 mg/kg/injection, schedule: Q07DX002 (ip), vehicle: saline + Tween-80 + alcohol): 102 % of control
- T/C (dose: 28.0 mg/kg/injection, schedule: Q07DX002 (ip), vehicle: saline with Tween-80): 100 % of control
- T/C (dose: 50.0 mg/kg/injection, schedule: Q07DX002 (ip), vehicle: other): 63 % of control and 86 % of control
- T/C (dose: 56.0 mg/kg/injection, schedule: Q07DX002 (ip), vehicle: saline + Tween-80 + alcohol): 86 % of control
- T/C (dose: 56.0 mg/kg/injection, schedule: Q07DX002 (ip), vehicle: saline with Tween-80): 92 % of control and 93 % of control
- T/C (dose: 100.0 mg/kg/injection, schedule: Q07DX002 (ip), vehicle: other): 84 % of control
- T/C (dose: 112.0 mg/kg/injection, schedule: Q07DX002 (ip), vehicle: saline with Tween-80): 100 % of control

Structure (SMILES): CC1=C(/C=C/C(C)=C/C=C/C(C)=C/C(=O)O)C(C)(C)CCC1
- T/C (dose: 3.12 mg/kg/injection, schedule: Q07DX003 (ip), vehicle: saline with Tween-80): 87 % of control
- T/C (dose: 6.25 mg/kg/injection, schedule: Q07DX003 (ip), vehicle: saline with Tween-80): 96 % of control
- T/C (dose: 8.0 mg/kg/injection, schedule: Q07DX003 (ip), vehicle: saline with Tween-80): 103 % of control
- T/C (dose: 12.5 mg/kg/injection, schedule: Q07DX003 (ip), vehicle: saline with Tween-80): 99 % of control
- T/C (dose: 25.0 mg/kg/injection, schedule: Q07DX003 (ip), vehicle: saline with Tween-80): 100 % of control
- T/C (dose: 32.0 mg/kg/injection, schedule: Q07DX003 (ip), vehicle: saline with Tween-80): 98 % of control
- T/C (dose: 64.0 mg/kg/injection, schedule: Q07DX003 (ip), vehicle: saline with Tween-80): 102 % of control

Structure (SMILES): C=C(C)C(=NC(C)(C)C)Nc1ccccc1
- T/C [1]: 100 % of control
- T/C [2]: 101 % of control
- T/C [3]: 103 % of control
- T/C (dose: 200.0 mg/kg/injection, schedule: Q07DX002 (ip), vehicle: saline with Tween-80): 108 % of control
- T/C (dose: 400.0 mg/kg/injection, schedule: Q07DX002 (ip), vehicle: saline with Tween-80): 100 % of control

Structure (SMILES): COc1cc(Cc2nccc3cc(OC)c(OC)cc23)c(C(C)=O)c(OC)c1
- T/C (dose: 10.0 mg/kg/injection, schedule: Q07DX002 (ip), vehicle: suspension in saline): 104 % of control
- T/C (dose: 20.0 mg/kg/injection, schedule: Q07DX002 (ip), vehicle: saline): 110 % of control
- T/C (dose: 20.0 mg/kg/injection, schedule: Q07DX002 (ip), vehicle: suspension in saline): 103 % of control
- T/C (dose: 40.0 mg/kg/injection, schedule: Q07DX002 (ip), vehicle: saline): 107 % of control
- T/C (dose: 40.0 mg/kg/injection, schedule: Q07DX002 (ip), vehicle: suspension in saline): 59 % of control
- T/C (dose: 80.0 mg/kg/injection, schedule: Q07DX002 (ip), vehicle: saline): 82 % of control
- T/C (dose: 80.0 mg/kg/injection, schedule: Q07DX002 (ip), vehicle: suspension in saline): 81 % of control
- T/C (dose: 160.0 mg/kg/injection, schedule: Q07DX002 (ip), vehicle: saline): 96 % of control
- T/C (dose: 320.0 mg/kg/injection, schedule: Q07DX002 (ip), vehicle: saline): 74 % of control
